In US11174439B2, “Method to inhibit polymerization in a process water” (Ecolab USA, Inc., priority 2016, dated 2021):
Several values for one entry are separate records, joined by “and”; a condition that tells them apart may be missing. Identical values can stand only once. One block for each compound: values may come before it.

Experiment: Pygas-water partition coefficient determination (simulated pygas / de-ionized water, HPLC-MS)
Assay type: physicochemical
Conditions: for [HTMPO] (ppm) in Undiluted Phase, Average / [HTMPOH] (ppm) in Undiluted Phase, Average / [sBuPDA] (ppm) in Undiluted Phase, Average: average of 3 trials ± standard uncertainty; for [HTMPO] (ppm) in Undiluted Phase / [HTMPOH] (ppm) in Undiluted Phase / [sBuPDA] (ppm) in Undiluted Phase: individual trials 1-3; for [HTMPO] (ppm) in Undiluted Phase: inhibitor 1.0 wt % total; for Partition Ratio (pygas/aqueous): simulated pygas vs de-ionized water, ± standard uncertainty
Description: Pygas-water partition coefficients are determined by measuring the concentration of a polymerization inhibitor in a pygas-water mixture. In some embodiments, a pygas from an actual process water sample is used as the pygas in the determination; in some such embodiments, an actual process water is used. In other embodiments, a simulated pygas is formed and water is added to the simulated pygas for the determination. For purposes of providing measurements related to the disclosures herein, a simulated pygas consisting essentially of a mixture of toluene, styrene, cyclohexane, n-hexane, and dicyclopentadiene is employed. Partition coefficient is determined by mixing equal volumes of de-ionized water and simulated pygas, then adding a potential polymerization inhibitor at a concentration range of about 0.1 wt % to 5 wt %, in some embodiments, followed by a period of vigorous mixing, then a period of standing undisturbed to allow the phases to separate; the relative concentration of a species in each phase determines the partition coefficient. For purposes of partition coefficients recited herein, the test is conducted at a target inhibitor concentration of 1 wt % (10,000 ppm) followed by vigorous mixing for 30 minutes, followed by allowing the mixture to stand substantially unperturbed for 30 minutes. The pygas and aqueous phases that result in the unperturbed mixture are separated and concentration of the potential polymerization inhibitor in each phase is quantified, for example by high performance liquid chromatography coupled with mass spectrometry analysis (HPLC-MS). The partition ratio, or partition coefficient, of the potential polymerization inhibitor between the pygas and aqueous phases is then calculated according to the formula
[formula] where P is the partition coefficient, [I]pygas is the concentration of the potential polymerization inhibitor in the pygas phase, and [I]aqueous is the concentration of potential polymerization inhibitor in the aqueous phase.
The partition ratio of the polymerization inhibitor […]-2,2,6,6-tetramethylpiperidinyl-1-oxyl (HTMPO) between pygas and aqueous phases was determined by the following procedure. HTMPO was added to a mixture of equal volumes of de-ionized water and simulated pyrolysis gasoline (pygas). The simulated pygas consisted of a mixture of toluene, styrene, cyclohexane, n-hexane, and dicyclopentadiene. The amounts of inhibitor and liquid phases used were such that the inhibitor was present at a total concentration of 1.0 wt % based on the weight of the combined phases.
The system consisting of the inhibitor, pygas phase, and aqueous phase was vigorously stirred for thirty minutes, after which time it was allowed to sit undisturbed for an additional thirty minutes. The immiscible pygas and aqueous phases were then separated.
A stock solution of known concentration of HTMPO in acetonitrile was diluted with water/acetonitrile to give five different solutions at concentrations spanning an appropriate working range of a high performance liquid chromatograph (HPLC) coupled to a mass spectrometer with an electrospray ionization (ESI) source. The five dilute solutions were analyzed as standards using HPLC-MS, and the areas of the peaks corresponding to HTMPO in these solutions were used to construct a calibration curve of peak area vs. concentration (mass fraction, ppm).
The pygas phase of unknown concentration of HTMPO, separated from the aqueous phase in the first part of the experiment, was diluted with water/acetonitrile to give a solution whose concentration was within the range of the calibration curve. The dilute pygas solution was analyzed by HPLC-MS, and the concentration of HTMPO in this pygas solution was calculated by interpolation of its HTMPO peak area into the calibration curve. The concentration of HTMPO in the original, undiluted pygas phase was calculated by applying the dilution factor to the interpolated concentration of the diluted solution. […]

Structure (SMILES): CC1(C)CC(O)CC(C)(C)N1[O] [HTMPO, 4-hydroxy-2,2,6,6-tetramethylpiperidinyl-1-oxyl]
[HTMPO] (ppm) in Undiluted Phase, Average (Aqueous Phase): 7410.8 ± 453.5 ppm
[HTMPO] (ppm) in Undiluted Phase (Aqueous Phase): 7155.2 ppm and 7142.9 ppm and 7934.4 ppm
Partition Ratio (pygas/aqueous) (HTMPO): 0.079 ± 0.008
[HTMPO] (ppm) in Undiluted Phase, Average (Pygas Phase): 582.8 ± 47.0 ppm
[HTMPO] (ppm) in Undiluted Phase (Pygas Phase, equal volumes de-ionized water and simulated pygas): 597.8 ppm and 530.2 ppm and 620.5 ppm

Structure (SMILES): CC1(C)CC(O)CC(C)(C)N1O [HTMPOH, 1,4-dihydroxy-2,2,6,6-tetramethylpiperidine]
[HTMPOH] (ppm) in Undiluted Phase, Average (Aqueous Phase): 2829.8 ± 79.0 ppm
[HTMPOH] (ppm) in Undiluted Phase (Aqueous Phase): 2807.5 ppm and 2764.3 ppm and 2917.6 ppm
Partition Ratio (pygas/aqueous) (HTMPOH): 0.0096 ± 0.0003
[HTMPOH] (ppm) in Undiluted Phase, Average (Pygas Phase): 27.2 ± 0.6 ppm
[HTMPOH] (ppm) in Undiluted Phase (Pygas Phase): 27.8 ppm and 26.6 ppm and 27.2 ppm

[sBuPDA] (ppm) in Undiluted Phase, Average (Aqueous Phase): 0.29 ± 0.03 ppm
[sBuPDA] (ppm) in Undiluted Phase (Aqueous Phase): 0.29 ppm and 0.26 ppm and 0.32 ppm
[sBuPDA] (ppm) in Undiluted Phase, Average (Pygas Phase): 4075 ± 161.6 ppm
[sBuPDA] (ppm) in Undiluted Phase (Pygas Phase): 4218.2 ppm and 4109.2 ppm and 3900.2 ppm
Partition Ratio (pygas/aqueous) (sBuPDA): 14000 ± 2000
Structure (SMILES): CCC(C)Nc1ccc(NC(C)CC)cc1 (stereo not drawn) [sBuPDA, N,N′-di-sec-butyl-1,4-phenylenediamine]
